From patent US5691373A, “Nonpeptide endothelin antagonists I” (Warner-Lambert Company, priority 1995, dated 1997)
Where two headings read alike, the source gives them in different places.

Key:
[1] = molecular target: T1, ETB (Rattus norvegicus, UniProt P21451)
T1 sequence (P21451 27-442): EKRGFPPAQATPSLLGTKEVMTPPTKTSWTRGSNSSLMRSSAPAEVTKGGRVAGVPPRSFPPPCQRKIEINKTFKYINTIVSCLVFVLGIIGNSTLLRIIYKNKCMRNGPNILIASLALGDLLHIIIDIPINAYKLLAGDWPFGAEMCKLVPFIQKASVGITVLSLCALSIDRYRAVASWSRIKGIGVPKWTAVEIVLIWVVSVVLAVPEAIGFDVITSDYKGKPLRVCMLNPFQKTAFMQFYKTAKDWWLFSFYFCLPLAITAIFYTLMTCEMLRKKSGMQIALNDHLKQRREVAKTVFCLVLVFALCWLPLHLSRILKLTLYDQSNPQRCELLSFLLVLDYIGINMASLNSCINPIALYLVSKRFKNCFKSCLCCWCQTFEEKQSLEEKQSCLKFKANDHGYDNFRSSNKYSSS
Method: The tissue is made up of 20 mM tris(hydroxymethyl)aminomethane hydrochloride (Trizma) buffer, 2 mM ethylenediaminetetra acetate, 100 μM phenylmethylsulfonyl fluoride.
First, thaw one aliquot of frozen rat cerebellar membranes (2 mg protein in 0.5 mL). Next, add 0.5 mL membrane aliquot to 4.5 mL cold tissue buffer, polytron at 7,500 revolutions per minute for 10 seconds. Finally, dilute tissue suspension 1/100 (0.1 mL suspension+9.9 mL tissue buffer), polytron again, and place ice.
Mix in 150 μL of tissue to each tube, vortex briefly, then tap to force all liquids to bottom (total assay volume=250 μL). Then place the tubes in a 37° C. water bath for 2 hours.
Add 2.5 mL cold wash buffer (50 mM Trizma buffer) to each tube, filter, and then wash tube with additional 2.5 mL wash buffer and add to filter. Finally, wash filters with an additional 2.5 mL of cold wash buffer.
Count filters for radioactivity in gamma counter.

[2] = molecular target: T2, ETA (Oryctolagus cuniculus, UniProt A5A8K3)
T2 sequence (A5A8K3 21-427): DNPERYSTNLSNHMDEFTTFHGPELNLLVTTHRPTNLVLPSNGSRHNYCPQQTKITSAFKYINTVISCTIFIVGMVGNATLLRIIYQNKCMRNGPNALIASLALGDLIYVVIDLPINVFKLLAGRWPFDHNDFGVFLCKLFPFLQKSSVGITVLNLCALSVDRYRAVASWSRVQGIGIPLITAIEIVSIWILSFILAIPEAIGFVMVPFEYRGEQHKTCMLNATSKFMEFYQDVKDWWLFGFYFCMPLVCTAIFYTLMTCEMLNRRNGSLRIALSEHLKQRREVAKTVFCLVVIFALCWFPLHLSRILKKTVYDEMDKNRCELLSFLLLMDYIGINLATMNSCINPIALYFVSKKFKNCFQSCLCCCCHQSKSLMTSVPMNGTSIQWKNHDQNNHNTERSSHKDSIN

[3] = molecular target: T3, human ETB receptor (Homo sapiens, UniProt P24530); assay: ERBA-B: [125I]-ET-1 binding, recombinant human ETB receptor expressed in CHO-K1 cells; conditions: human cloned ETB receptor, read-out: ERBA-B IC50, human cloned receptor data
T3 construct: expressed in transfected cells; host or cells: CHO-K1 cells, pRc-CMW (so in the source) expression vector, electroporation; membranes used
T3 sequence (P24530 27-442): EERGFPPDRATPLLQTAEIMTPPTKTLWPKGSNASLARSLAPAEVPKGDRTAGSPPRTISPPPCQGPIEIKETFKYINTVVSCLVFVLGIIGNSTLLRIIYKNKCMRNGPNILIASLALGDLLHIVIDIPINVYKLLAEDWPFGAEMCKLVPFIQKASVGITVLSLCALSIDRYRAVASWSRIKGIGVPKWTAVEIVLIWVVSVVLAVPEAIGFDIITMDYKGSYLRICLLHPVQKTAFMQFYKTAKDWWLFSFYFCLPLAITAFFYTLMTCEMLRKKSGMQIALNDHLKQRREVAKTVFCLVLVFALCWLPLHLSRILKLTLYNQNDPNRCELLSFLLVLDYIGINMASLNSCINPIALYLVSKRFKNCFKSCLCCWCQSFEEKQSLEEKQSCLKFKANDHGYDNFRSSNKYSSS

[4] = ERBA-A IC50, [125I]-ET-1, rabbit renal artery vascular smooth muscle cells
[5] = read-out: ERBA-B IC50, [125I]-ET-1, rat cerebellar membranes

SMILES	IC50 [2, 4]	IC50 [3]	also measured
COc1ccc(C2(O)OC(=O)C(c3cc(OC)cc(OC)c3)=C2Cc2ccccc2)cc1 (stereo not drawn) [Example 125, 4-Benzyl-3-(3,5-dimethoxyphenyl)-5-hydroxy-5-(4-methoxyphenyl)-5H-furan-2-one]	29 nM	–	IC50 [1]: 0.2 µM
COc1ccc(C2=C(Cc3ccc(N(C)C)cc3)C(O)(c3ccc(Cl)cc3)OC2=O)cc1OC (racemic) [Example 71, 2(5H)-Furanone, 5-(4-Chlorophenyl)-3-(3,4-dimethoxyphenyl)-4-[[4-(dimethylamino)phenyl]methyl]-5-hydroxy-, (±)-]	–	–	IC50 [1]: 4.2 µM
O=C1OC(O)(c2ccc(Cl)cc2)C(Cc2ccc3c(c2)OCO3)=C1c1ccc2c(c1)OCO2 (racemic) [Example 46, 2(5H)-Furanone, 3-(1,3-benzodioxol-5-yl)-4-(1,3-benzodioxol-5-ylmethyl)-5-(4-chlorophenyl)-5-hydroxy-, (±)-]	3600 nM	–	IC50 [1]: 6.4 µM
O=C1OC(O)(c2ccc(Cl)cc2)C(Cc2ccccc2)=C1c1ccc2c(c1)OCO2 (stereo not drawn) [Example 39, 2(5H)-Furanone, 3-(1,3-benzodioxol-5-yl)-5-(4-chlorophenyl)-5-hydroxy-4-(phenylmehyl)-]	–	–	IC50 [1]: 4.2 µM
O=C1OC(O)(c2ccccc2)C(Cc2ccccc2)=C1c1ccc2c(c1)OCO2 (stereo not drawn) [Example 24, 2(5H)-Furanone, 3-(1,3-benzodioxol-5-yl)-5-hydroxy-5-phenyl-4-(phenylmethyl)-]	–	–	IC50 [1]: 26 µM
CN(C)c1ccc(C2=C(Cc3ccc4c(c3)OCO4)C(O)(c3ccc(Cl)cc3)OC2=O)cc1 (racemic) [Example 54, 2(5H)-Furanone, 4-(1,3-benzodioxol-5-ylmethyl)-5-(4-chlorophenyl)-3-[4-(dimethylamino)phenyl]-5-hydroxy-, (±)-]	–	–	IC50 [1]: 18 µM
COc1ccc(CC2=C(c3ccc4c(c3)OCO4)C(=O)OC2(O)c2ccc(OC)cc2)cc1 (stereo not drawn) [Example 77, 3-Benzo[1,3]dioxol-5-yl-5-hydroxy-4-(4-methoxybenzyl)-5-(4-methoxyphenyl)-5 H-furan-2-one]	–	–	IC50 [1, 5]: 0.22 µM
COc1ccc(C2(O)OC(=O)C(c3ccc4c(c3)OCO4)=C2Cc2ccc(Cl)cc2)cc1 (stereo not drawn) [Example 81, 3-Benzo[1,3]dioxol-5-yl-4-(4-chlorobenzyl)-5-hydroxy-5-(4-methoxophenyl)-5H -furan-2-one]	–	–	IC50 [1, 5]: 0.72 µM
CN(C)c1ccc(CC2=C(c3ccc(N(C)C)cc3)C(=O)OC2(O)c2ccc(Cl)cc2)cc1 (racemic) [Example 55, 2(5H)-Furanone, 5-(4-chlorophenyl)-3-[4-(dimethylamino)phenyl]-4-[[4-(dimethylamino)phenyl]methyl]-5-hydroxy-, (±)-]	–	–	IC50 [1]: 21 µM
COc1ccc(C2(O)OC(=O)C(c3ccc4c(c3)OCO4)=C2Cc2cc(C)c(OC)c(C)c2)cc1 (stereo not drawn) [Example 296, 3-Benzo[1,3]dioxol-5-yl-5-hydroxy-4-(4-methoxy-3,5-dimethyl-benzyl)-5-(4-methoxy-phenyl)-5-H-furan-2-one]	6 nM	580 nM	–
COc1cc(OC)cc(C2=C(Cc3ccc(OC(C)C)c(C)c3)C(O)(c3ccc(OC)c(C)c3)OC2=O)c1 (stereo not drawn) [Example 396, 3-(3,5-Dimethoxy-phenyl)-5-hydroxy-4-(4-isopropoxy-3-methyl-benzyl)-5-(4-methoxy-3-methyl-phenyl)-5H-furan-2-one]	47 nM	1200 nM	–
COc1ccc(C2(O)OC(=O)C(c3ccc4c(c3)OCO4)=C2Cc2ccccc2Oc2ccc3c(c2)OCO3)cc1 (stereo not drawn) [Example 324, 3-Benzo[1,3]dioxol-5-yl-4-[2-(benzo[1,3]dioxol-5-yloxy)-benzyl]-5-hydroxy-5-(4-methoxy-phenyl)-5H-furan-2-one]	8.4 nM	5300 nM	–
COc1ccc(C(=O)/C(Cc2ccc(OC(C)C)cc2)=C(\C(=O)O)c2ccc3c(c2)OCO3)cc1 [Example 353, Sodium 2-Benzo[1,3]dioxol-5-yl-3-(4-isopropoxy-benzyl)-4-(4-methoxy-phenyl)-4-oxo-but-2-enoate]	4.4 nM	> 250 nM	–
CC(C)Oc1ccc(C2(O)OC(=O)C(c3ccc4c(c3)OCO4)=C2Cc2ccccc2)cc1 (stereo not drawn) [Example 204, 3-Benzo[1,3]dioxol-5-yl-4-benzyl-5-hydroxy-5-(4-isopropoxyphenyl)-5H-furan-2-one]	1050 nM	10000 nM	–
COc1ccc(C(=O)/C(Cc2ccccc2)=C(\C(=O)O)c2cc(OC)c3c(c2)OCO3)cc1 [Example 368, Sodium 3-Benzyl-2-(7-methoxy-benzo[1,3]dioxol-5-yl)-4-(4-methoxy-phenyl)-4-oxo-but-2-enoate]	< 25 nM	960 nM	–
CC(C)c1ccc(C2=C(Cc3cccc4ccccc34)C(O)(c3ccc(Cl)cc3)OC2=O)cc1 (racemic) [Example 40, 2(5H)-Furanone, 5-(4-chlorophenyl)-5-hydroxy-3-[4-(1-methylethyl)phenyl]-4-(1-naphthalenylmethyl)-, (±)-]	–	–	inhibition at 10 µM ([1]; read-out: ERBA-B % inhibition): 22%
CCC(CC)CC1=C(c2ccc3c(c2)OCO3)C(=O)OC1(O)c1ccc(OC)cc1 (stereo not drawn) [Example 315, 3-Benzo[1,3]dioxol-5-yl-4-(2-ethyl-butyl)-5-hydroxy-5-(4-methoxy-phenyl)-5H -furan-2-one]	40 nM	11800 nM	–
C=CCOc1cc(CC2=C(c3ccc4c(c3)OCO4)C(=O)OC2(O)c2ccc(OC)cc2OC)ccc1OC (stereo not drawn) [Example 255, 4-(3-Allyloxy-4-methoxybenzyl)-3-benzo[1,3]dioxol-5-yl-5-(2,4-dimethoxyphenyl)-5-hydroxy-5H-furan-2-one]	8.3 nM	1400 nM	–
COc1ccc(C2(O)OC(=O)C(c3ccc4c(c3)OCO4)=C2Cc2cc(C)c(OC)cc2C)cc1 (stereo not drawn) [Example 251, 3-Benzo[1,3]dioxol-5-yl-5-hydroxy-4-(4-methoxy-2,5-dimethylbenzyl)-5-(4-methoxyphenyl)-5H-furan-2-one]	6 nM	> 2500 nM	–
CCCCCCCCOc1ccc(CC2=C(c3cc(OC)cc(OC)c3)C(=O)OC2(O)c2ccc(OC)c(C)c2)cc1OC (stereo not drawn) [Example 393, 3-(3,5-Dimethoxy-phenyl)-5-hydroxy-5-(4-methoxy-3-methyl-phenyl)-4-(3-methoxy-4-octyloxy-benzyl)-5H-furan-2-one]	240 nM	830 nM	–
COc1ccc(C(=O)/C(Cc2ccc(OC)c(C)c2)=C(\C(=O)O)c2ccc3c(c2)OCO3)cc1 [Example 172, 2-Butenoic acid, 2-(1,3-benzodioxol-5-yl)-3-[(4-methoxy-3-methylphenyl)methyl]-4-(4-methoxyphenyl)-4-oxo-, (Z)-, ion(1-) compd. with 2-hydroxy-N,N,N-trimethylethanaminium (1:1)]	–	> 2500 nM	IC50 ([2]; read-out: ERBA-A IC50, [125I]-ET-1, rabbit renal artery vascular smooth muscle cells): 7200 nM
COc1ccc(C2(O)OC(=O)C(c3ccc4c(c3)OCO4)=C2Cc2ccc(C(C)C)cc2)cc1 (stereo not drawn) [Example 404, 3-Benzo[1,3]dioxol-5-yl-5-hydroxy-4-(4-isopropylbenzyl)-5-(4-methoxy-phenyl)-5H-furan-2-one]	58 nM	> 2500 nM	–
COc1ccc(C2(O)OC(=O)C(c3ccc4c(c3)OCO4)=C2Cc2ccc(OCc3ccccc3)c(OC)c2)cc1 (stereo not drawn) [Example 309, 3-Benzo[1,3]dioxol-5-yl-4-(4-benzyloxy-3-methoxybenzyl)-5-hydroxy-5-(4-methoxy-phenyl)-5H-furan-2-one]	18 nM	860 nM	–
COc1ccc(C2(O)OC(=O)C(c3ccc4c(c3)OCO4)=C2Cc2cc(OC)cc(OC)c2)cc1 (stereo not drawn) [Example 303, 3-Benzo[1,3]dioxol-5-yl-4-(3,5-dimethoxy-benzyl)-5-hydroxy-5-(4-methoxy-phenyl)-5H-furan-2-one]	2.7 nM	760 nM	–
COc1ccc(C2(O)OC(=O)C(c3ccc(OC)cc3OC)=C2Cc2ccccc2)cc1 (stereo not drawn) [Example 113, 4-Benzyl-3-(2,4-dimethoxyphenyl)-5-hydroxy-5-(4-mehoxyphenyl)-5H-furan-2-one]	300 nM	25000 nM	–
